What all share (format): cell-based
The test system of one assay is K. pneumoniae NCTC 9632. The assay can be described thus: MIC by agar dilution, K. pneumoniae NCTC 9632. As to conditions: K. pneumoniae NCTC 9632, agar dilution, Mueller-Hinton agar; for MIC: Klebsiella pneumoniae, NCTC9632, 17 h, read-out: Minimal Inhibitory Concentration (MIC). In short, it runs like this: (§1)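 Two-fold dilutions of compound were dispersed in Mueller-Hinton agar, inoculated with test strain at 10^6 CFU per ml, and incubated at 35°-37° C. for 17±1 hours; MIC read from agar dilution.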
(In agar dilution, organisms are placed on agar that contains the substance at set levels.)

Another assay deals with Ent. cloacae IFO 13535. As to the kind of experiment: MIC by agar dilution, Ent. cloacae IFO 13535. As to conditions: Ent. cloacae IFO 13535, agar dilution, Mueller-Hinton agar; for MIC: Enterobacter cloacae, IFO13535, 17 h, read-out: Minimal Inhibitory Concentration (MIC). In short, it runs like this:
as §1

For assay [1], the system named is Ps. aeruginosa NCTC 10490. As to the kind of experiment: MIC by agar dilution, Ps. aeruginosa NCTC 10490. As to conditions: Mueller-Hinton agar; for MIC: Pseudomonas aeruginosa, NCTC10490, 17 h, read-out: Minimal Inhibitory Concentration (MIC). In short, it runs like this:
as §1

Another assay concerns E. coli NIHJ JC-2. As to the kind of experiment: MIC by agar dilution, E. coli NIHJ JC-2. As to conditions: E. coli NIHJ JC-2, agar dilution, Mueller-Hinton agar; for MIC: Escherichia coli, NIHJJC2, 17 h, read-out: Minimal Inhibitory Concentration (MIC). In short, it runs like this: as §1
The next assay has as its system B. subtilis ATCC 6633. As to the kind of experiment: MIC by agar dilution, B. subtilis ATCC 6633. As to conditions: B. subtilis ATCC 6633, agar dilution, Mueller-Hinton agar; for MIC: Bacillus subtilis, ATCC6633, 17 h, read-out: Minimal Inhibitory Concentration (MIC). The essentials:
as §1

Another assay has as its system Staph. aureus C-5113. As to the kind of experiment: MIC by agar dilution, Staph. aureus C-5113. As to conditions: Mueller-Hinton agar; for MIC: Staphylococcus aureus, C5113, 17 h, read-out: Minimal Inhibitory Concentration (MIC). In short, it runs like this:
as §1

The test system of the next assay is Ps. aeruginosa DY-2. As to the kind of experiment: MIC by agar dilution, Ps. aeruginosa DY-2. As to conditions: Ps. aeruginosa DY-2, agar dilution, Mueller-Hinton agar; for MIC: Pseudomonas aeruginosa, DY2, 17 h, read-out: Minimal Inhibitory Concentration (MIC). The essentials:
as §1

A further assay deals with P. vulgaris NCTC 8313. The assay can be described thus: MIC by agar dilution, P. vulgaris NCTC 8313. As to conditions: P. vulgaris NCTC 8313, agar dilution, Mueller-Hinton agar; for MIC: Proteus vulgaris, NCTC8313, 17 h, read-out: Minimal Inhibitory Concentration (MIC). In short, it runs like this: as §1
The subject of the next assay is Prov. stuartii IFO 12930. As to the kind of experiment: MIC by agar dilution, Prov. stuartii IFO 12930. As to conditions: Mueller-Hinton agar; for MIC: Providencia stuartii, IFO12930, 17 h, read-out: Minimal Inhibitory Concentration (MIC). The essentials:
as §1

Another assay concerns M. morganii DY-1. The assay can be described thus: MIC by agar dilution, M. morganii DY-1. As to conditions: M. morganii DY-1, agar dilution, Mueller-Hinton agar; for MIC: Morganella morganii, DY1, 17 h, read-out: Minimal Inhibitory Concentration (MIC). In short, it runs like this:
as §1

The subject of the next assay is E. coli DY-1. The assay can be described thus: MIC by agar dilution, E. coli DY-1. As to conditions: E. coli DY-1, agar dilution, Mueller-Hinton agar; for MIC: Escherichia coli, DY1, 17 h, read-out: Minimal Inhibitory Concentration (MIC). The essentials: as §1
Another assay relates to Staph. aureus ATCC 6538P. The assay can be described thus: MIC by agar dilution, Staph. aureus ATCC 6538P. As to conditions: Staph. aureus ATCC 6538P, agar dilution, Mueller-Hinton agar; for MIC: Staphylococcus aureus, ATCC6538P, 17 h, read-out: Minimal Inhibitory Concentration (MIC). In short, it runs like this:
as §1

The next assay deals with Staph. aureus C-5216. As to the kind of experiment: MIC by agar dilution, Staph. aureus C-5216. As to conditions: Mueller-Hinton agar; for MIC: Staphylococcus aureus, C5216, 17 h, read-out: Minimal Inhibitory Concentration (MIC). The essentials:
as §1

The subject of assay [2] is Ps. aeruginosa ATCC 10145. The assay can be described thus: MIC by agar dilution, Ps. aeruginosa ATCC 10145. As to conditions: Mueller-Hinton agar; for MIC: Pseudomonas aeruginosa, ATCC10145, 17 h, read-out: Minimal Inhibitory Concentration (MIC). The essentials:
as §1

A further assay concerns Ent. aerogenes IFO 12979. The assay can be described thus: MIC by agar dilution, Ent. aerogenes IFO 12979. As to conditions: Mueller-Hinton agar; for MIC: Klebsiella aerogenes, IFO12979, 17 h, read-out: Minimal Inhibitory Concentration (MIC). In short, it runs like this: as §1
The test system of assay [3] is Ser. marcescens IFO 12648. The assay can be described thus: MIC by agar dilution, Ser. marcescens IFO 12648. As to conditions: Ser. marcescens IFO 12648, agar dilution, Mueller-Hinton agar; for MIC: Serratia marcescens, IFO12648, 17 h, read-out: Minimal Inhibitory Concentration (MIC). The essentials: as §1
The subject of a further assay is E. coli No. 29. As to the kind of experiment: MIC by agar dilution, E. coli No. 29. As to conditions: E. coli No. 29, agar dilution, Mueller-Hinton agar; for MIC: Escherichia coli, 17 h, read-out: Minimal Inhibitory Concentration (MIC). The essentials: as §1
The next assay relates to Staph. aureus C-57. The assay can be described thus: MIC by agar dilution, Staph. aureus C-57. As to conditions: Mueller-Hinton agar; for MIC: Staphylococcus aureus, C57, 17 h, read-out: Minimal Inhibitory Concentration (MIC). In short, it runs like this:
as §1

Assay [4] relates to S. epidermidis ATCC 12228. As to the kind of experiment: MIC by agar dilution, S. epidermidis ATCC 12228. As to conditions: S. epidermidis ATCC 12228, agar dilution, Mueller-Hinton agar; for MIC: Staphylococcus epidermidis, ATCC12228, 17 h, read-out: Minimal Inhibitory Concentration (MIC). The essentials:
as §1

The test system of another assay is Staph. aureus Smith. The assay can be described thus: MIC by agar dilution, Staph. aureus Smith. As to conditions: Mueller-Hinton agar; for MIC: Staphylococcus aureus, 17 h, read-out: Minimal Inhibitory Concentration (MIC). In short, it runs like this:
as §1

The text below walks through data of patent US5593984A, “Cephalosporin derivatives” (Yuhan Corporation, priority 1992, dated 1997).

In brackets after ≈: the same amount, converted by molar mass.

On to `CCO/N=C(\C(=O)N[C@@H]1C(=O)N2C(C(=O)[O-])=C(C[n+]3ccn4c(C(N)=O)ccc4c3C)CS[C@H]12)c1csc(N)n1` [Ex. 44, 7-β-[(Z)-2-(2-aminothiazol-4-yl)-2-ethoxyiminoacetamido]-3-(6-carbamoyl-1-methylpyrrolo[1,2-a]pyrazinium-2-yl)methyl-3-cephem-4-carboxylate], for which the “Minimal Inhibitory Concentration (MIC)” value worked out at 0.050 µg/mL with K. pneumoniae NCTC 9632; 0.100 µg/mL in the assay with Ent. cloacae IFO 13535; 0.780 µg/mL in assay [1]; 0.050 µg/mL in the assay on E. coli NIHJ JC-2; 0.390 µg/mL in the assay with B. subtilis ATCC 6633; 1.560 µg/mL in the assay with Staph. aureus C-5113. The “Minimal Inhibitory Concentration (MIC)” value stood at 6.250 µg/mL with Ps. aeruginosa DY-2; 0.050 µg/mL in the assay on P. vulgaris NCTC 8313; 0.012 µg/mL in the assay with Prov. stuartii IFO 12930; 0.100 µg/mL in the assay with M. morganii DY-1; 0.025 µg/mL in the assay with E. coli DY-1; 0.200 µg/mL in the assay on Staph. aureus ATCC 6538P. Also, the “Minimal Inhibitory Concentration (MIC)” value stood at 1.560 µg/mL with Staph. aureus C-5216; 3.130 µg/mL in [2]; 0.050 µg/mL in the assay on Ent. aerogenes IFO 12979; 0.050 µg/mL in assay [3]; 0.025 µg/mL in the assay on E. coli No. 29; 100.000 µg/mL in the assay on Staph. aureus C-57. The “Minimal Inhibitory Concentration (MIC)” value in [4] amounted to 0.100 µg/mL; in the assay on Staph. aureus Smith, 0.780 µg/mL.
As for `CO/N=C(\C(=O)N[C@@H]1C(=O)N2C(C(=O)[O-])=C(C[n+]3ccn4c(C(C)C)cc(C(C)C)c4c3)CS[C@H]12)c1csc(N)n1` [Ex. 36, 7-β-[(Z)-2-(2-aminothiazol-4-yl)-2-methoxyiminoacetamido]-3-(6,8-diisopropyl-pyrrolo[1,2-a]pyrazinium-2-yl)methyl-3-cephem-4-carboxylate], the MIC in the assay with K. pneumoniae NCTC 9632 was found to be 0.78 µg/mL (≈ 1.3 µM); in the assay on Ent. cloacae IFO 13535 it was 3.13 µg/mL (≈ 5.24 µM); in [1], 25 µg/mL (≈ 41.8 µM); with E. coli NIHJ JC-2, 0.78 µg/mL (≈ 1.3 µM); with B. subtilis ATCC 6633, 0.2 µg/mL (≈ 0.335 µM); in the assay with Staph. aureus C-5113, 1.56 µg/mL (≈ 2.61 µM). Further, the MIC worked out at 100 µg/mL (≈ 167 µM) with Ps. aeruginosa DY-2; 0.05 µg/mL (≈ 0.0837 µM) in the assay with P. vulgaris NCTC 8313; 0.2 µg/mL (≈ 0.335 µM) in the assay with Prov. stuartii IFO 12930; 1.56 µg/mL (≈ 2.61 µM) in the assay on M. morganii DY-1; 0.1 µg/mL (≈ 0.167 µM) in the assay on E. coli DY-1; 0.39 µg/mL (≈ 0.652 µM) in the assay with Staph. aureus ATCC 6538P. The MIC with Staph. aureus C-5216 worked out at 6.25 µg/mL (≈ 10.5 µM); in assay [2], 50 µg/mL (≈ 83.7 µM); in the assay on Ent. aerogenes IFO 12979, 0.2 µg/mL (≈ 0.335 µM); in assay [3] it was 0.78 µg/mL (≈ 1.3 µM); with E. coli No. 29, 0.2 µg/mL (≈ 0.335 µM); in the assay on Staph. aureus C-57, 100 µg/mL (≈ 167 µM). Further, the values for the MIC (in assay [4]; with Staph. aureus Smith) were 0.2 µg/mL (≈ 0.335 µM) and 3.13 µg/mL (≈ 5.24 µM), respectively.
For `CO/N=C(\C(=O)N[C@@H]1C(=O)N2C(C(=O)[O-])=C(C[n+]3ccn4cccc4c3)CS[C@H]12)c1nsc(N)n1` [Ex. 48, 7-β-[(Z)-2-(5-amino-1,2,4-thiadiazol-3-yl)-2-methoxyiminoacetamido]-3-(pyrrolo [1,2-a]pyrazinium-2-yl)methyl-3-cephem-4-carboxylate], the MIC in the assay with K. pneumoniae NCTC 9632 was 0.025 µg/mL (≈ 0.0486 µM); in the assay with Ent. cloacae IFO 13535, 0.025 µg/mL (≈ 0.0486 µM); in [1], 0.1 µg/mL (≈ 0.194 µM); with E. coli NIHJ JC-2, 0.012 µg/mL (≈ 0.0233 µM); in the assay on B. subtilis ATCC 6633 it was 0.2 µg/mL (≈ 0.389 µM); with Staph. aureus C-5113, 0.78 µg/mL (≈ 1.52 µM). Also, the MIC is 0.78 µg/mL (≈ 1.52 µM) in the assay on Ps. aeruginosa DY-2; 0.012 µg/mL (≈ 0.0233 µM) in the assay with P. vulgaris NCTC 8313; ≤ 0.006 µg/mL with Prov. stuartii IFO 12930; 0.05 µg/mL (≈ 0.0972 µM) in the assay with M. morganii DY-1; 0.025 µg/mL (≈ 0.0486 µM) in the assay on E. coli DY-1; 0.39 µg/mL (≈ 0.758 µM) with Staph. aureus ATCC 6538P. The MIC with Staph. aureus C-5216 is 0.78 µg/mL (≈ 1.52 µM); in assay [2], 0.39 µg/mL (≈ 0.758 µM); in the assay on Ent. aerogenes IFO 12979, 0.012 µg/mL (≈ 0.0233 µM); in assay [3], 0.025 µg/mL (≈ 0.0486 µM); with E. coli No. 29, 0.012 µg/mL (≈ 0.0233 µM); with Staph. aureus C-57, 6.25 µg/mL (≈ 12.1 µM). In addition, the MIC turned out to be 0.1 µg/mL (≈ 0.194 µM) in [4] and 0.78 µg/mL (≈ 1.52 µM) in the assay on Staph. aureus Smith.
